Read-outs that look alike come from different tables or passages of the source.
Experiments:
KV10.1 [1] = target: T1, KV10.1 (Homo sapiens, UniProt O95259); experiment: Whole-cell patch clamp on HEK-293 cells stably expressing KV10.1; assay type: cell-based
T1 construct: expressed in transfected cells
T1 sequence (O95259 1-962 isoform O95259-2): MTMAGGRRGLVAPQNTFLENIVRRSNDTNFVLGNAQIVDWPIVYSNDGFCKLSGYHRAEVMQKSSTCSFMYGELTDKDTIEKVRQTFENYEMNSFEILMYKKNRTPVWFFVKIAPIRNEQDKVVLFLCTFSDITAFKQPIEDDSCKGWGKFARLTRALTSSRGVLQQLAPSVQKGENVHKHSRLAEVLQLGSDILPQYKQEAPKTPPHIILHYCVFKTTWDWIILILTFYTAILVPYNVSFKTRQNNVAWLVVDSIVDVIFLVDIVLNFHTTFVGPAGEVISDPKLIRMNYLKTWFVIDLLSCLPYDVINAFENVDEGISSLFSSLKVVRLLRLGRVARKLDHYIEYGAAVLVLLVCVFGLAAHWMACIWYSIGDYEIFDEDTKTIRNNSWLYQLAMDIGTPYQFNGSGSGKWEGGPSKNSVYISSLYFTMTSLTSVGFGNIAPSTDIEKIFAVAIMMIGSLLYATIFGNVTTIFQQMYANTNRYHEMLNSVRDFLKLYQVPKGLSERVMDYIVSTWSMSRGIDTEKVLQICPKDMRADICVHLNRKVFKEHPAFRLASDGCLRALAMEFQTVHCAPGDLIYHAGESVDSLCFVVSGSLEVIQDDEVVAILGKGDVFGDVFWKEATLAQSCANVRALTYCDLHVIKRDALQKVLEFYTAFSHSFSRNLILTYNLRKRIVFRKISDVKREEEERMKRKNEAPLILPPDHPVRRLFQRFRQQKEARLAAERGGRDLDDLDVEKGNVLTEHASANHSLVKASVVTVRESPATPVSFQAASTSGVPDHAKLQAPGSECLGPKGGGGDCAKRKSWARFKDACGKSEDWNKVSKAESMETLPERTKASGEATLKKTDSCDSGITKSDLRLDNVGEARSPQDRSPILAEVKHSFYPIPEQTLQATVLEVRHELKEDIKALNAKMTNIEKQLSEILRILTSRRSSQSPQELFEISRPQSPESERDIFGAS
Description: Whole-cell patch clamp experiments were performed on stably transfected HEK-293 cells. The cells were grown on fibronectin-coated glass coverslips in DMEM supplemented with 10% FCS and 300 µg/mL Zeocin. Experiments were performed at room temperature under continuous perfusion. The extracellular solution contained (mM) 160 NaCl, 2.5 KCl, 2 CaCl2, 1 MgCl2, 10 Hepes/NaOH, pH 7.4, 8 glucose. For the experiments determining conductance–voltage relationships, tail currents were made visible by substituting 60 mM NaCl by KCl ([…], 100 NaCl). Pipettes were pulled from #1 glass capillaries (WPI) to resistances of 1–3 MΩ when loaded with the intracellular solution (100 KCl, 45 N-methyl-D-glucamine, 10 1,2-bis(o-aminophenoxy)ethane-N,N,N′,N′-tetraacetic acid (BAPTA), 10 Hepes pH 7.35). Data acquisition was performed using a EPC10 Plus amplifier (HEKA Elektronik) and Patch Master software. Drug application was performed using an 8-channel fast solution exchanger (ALA). All compounds were dissolved in DMSO to a final concentration of 10 mM. 0.5% DMSO in extracellular solution served as control. KV10.1 currents were elicited by 500 ms depolarisations to +40 mV under continuous perfusion with the compound-containing or control solution. hERG current amplitudes were measured as the peak tail current during a 4 s repolarization to −40 mV after a depolarising pulse to +20 mV lasting for 2 s.
The nine selected in silico hits were tested by manual patch-clamp on a HEK293 cell line stably expressing KV10.1 [33] at a compound concentration of 50 μM (Table 1). Compound activity was tested by determining the current amplitude elicited by repetitive stimuli to +40 mV from a holding potential of −80 mV. […] The hit compound ZVS-08 represents a new structural class of KV10.1 inhibitors with diarylamine structure and has a unique structure among the acquired virtual screening hits. […] The most notable change from the purpurealidin analogues is the replacement of the hydrogen bond acceptor group of the amide bond with the oxygen atom of the nitro group of ZVS-08.

[2] = tested on: Salmonella typhimurium strain TA100; experiment: Salmonella/microsomal reverse mutation (Ames) assay, TA100; parameters: key to bacterial background lawn: slightly reduced bacterial background; moderately reduced bacterial background; extremely reduced bacterial background; bacterial background is absent; conditions: for mutagenic response: TA100, 0.0158–0.158 mg/plate, −S9 and +S9; for induction factor (IF): IF ≥ 2 positive; for cytotoxic concentration to bacterial strain: TA100, −/+ S9 metabolic activation
Description: Mutagenicity of compounds ZVS-08 and 8 was tested with the Salmonella/microsomal reverse mutation (Ames) assay on Salmonella typhimurium strains TA98 and TA100 without and with external metabolic activation according to the OECD guidelines (OECD TG 471) with minor modifications. Briefly, 100 µL of ZVS-08 and 8 (0.158, 0.5, 1.58, 5, 15.8, and 50 mg/mL corresponding to the final concentration of 0.0158, 0.05, 0.158, 0.5, 1.58, and 5 mg/plate, respectively), […] bacterial culture of S. typhimurium (overnight culture at 37 °C), and […] of phosphate buffer (for assays without metabolic activation) or 10% S9 mix (for assays with metabolic activation) were added to 2 mL of molten top agar (supplemented with histidine/biotin, final concentration 0.05 mM), gently mixed and poured onto minimal agar plates. The number of His+ revertants was counted after 48 h (TA100) and 72 h (TA98) of incubation at 37 °C. Three plates were used per treatment point. The mutagenic potential of the compounds was expressed as an induction factor (IF), where IF = (number of revertants in the presence of the compound)/(number of revertants in solvent control). Additionally, each plate was checked for possible toxic effects of tested compounds. […] 4-nitroquinoline- N-oxide (4-NQNO; 0.25 μg/plate) for TA98 and sodium azide (NaN3; 0.25 μg/plate) for TA100 were used as positive controls without S9 metabolic activation, while benzo[a]pyrene (B[a]P; 2.5 μg/plate) was used as positive controls for both bacterial strains with S9 metabolic activation.

KV10.1 [3] = target: T1, KV10.1; experiment: Whole-cell patch clamp on HEK-293 cells stably expressing KV10.1; assay type: cell-based; conditions: HEK293; 10 μM; mean ± standard error (or range)
[4] = HEK-293, 500 ms depolarisation to +40 mV, read-out: IC50 Kv10.1

SMILES: CN(C)CC(O)COc1ccc(Nc2ccc(C(F)(F)F)cc2[N+](=O)[O-])cc1 (stereo not shown) [ZVS-08]
- inhibition at 50 µM (KV10.1 [1]; HEK293, compound concentration 50 μM, stimuli to +40 mV, mean ± standard error, read-out: Effect on Kv10.1 (% Inhibition)): 80.27 ± 0.63%
- IC50 (KV10.1 [1]; [4]): 3700 nM
- semi-maximal activation (conductance–voltage relationship) (KV10.1 [1]; in the presence of 5 µM ZVS-08, 4.39 ± 1.9 mV in the absence): −29.88 ± 1.8 mV
- IC50 (KV10.1 [1]; same IC50 in presence and absence of 500 nM astemizole, end of 500 ms pulse to +40 mV, read-out: IC50 Kv10.1, competition with astemizole): 1690 nM
- IC50 (KV10.1 [1]; same IC50 in presence and absence of 1 µM mibefradil, end of 500 ms pulse to +40 mV, read-out: IC50 Kv10.1, competition with mibefradil): 1470 nM
- mutagenic response [2]: no mutagenic response
- Average number of revertant colonies (mean ± SD) ([2]; TA100, +S9, 0.0158 mg/plate): 102.67 ± 15.01
- induction factor (IF) ([2]; TA100, +S9, 0.0158 mg/plate): 1.02
- Average number of revertant colonies (mean ± SD) ([2]; TA100, +S9, 0.05 mg/plate): 81.67 ± 14.57
- induction factor (IF) ([2]; TA100, +S9, 0.05 mg/plate): 0.81
- Average number of revertant colonies (mean ± SD) ([2]; TA100, +S9, 0.158 mg/plate): 71.00 ± 7.21
- bacterial background lawn ([2]; TA100, +S9, 0.158 mg/plate): a
- induction factor (IF) ([2]; TA100, +S9, 0.158 mg/plate): 0.71
- Average number of revertant colonies (mean ± SD) ([2]; TA100, +S9, 0.5 mg/plate): 0
- bacterial background lawn ([2]; TA100, +S9, 0.5 mg/plate): b
- Average number of revertant colonies (mean ± SD) ([2]; TA100, +S9, 1.58 mg/plate): 0
- bacterial background lawn ([2]; TA100, +S9, 1.58 mg/plate): d
- Average number of revertant colonies (mean ± SD) ([2]; TA100, +S9, 5 mg/plate): 0
- bacterial background lawn ([2]; TA100, +S9, 5 mg/plate): d
- Average number of revertant colonies (mean ± SD) ([2]; TA100, -S9, 0.0158 mg/plate): 114.00 ±2.00
- induction factor (IF) ([2]; TA100, -S9, 0.0158 mg/plate): 1.29
- Average number of revertant colonies (mean ± SD) ([2]; TA100, -S9, 0.05 mg/plate): 99.67 ± 16.80
- induction factor (IF) ([2]; TA100, -S9, 0.05 mg/plate): 1.12
- Average number of revertant colonies (mean ± SD) ([2]; TA100, -S9, 0.158 mg/plate): 81.00 ± 5.29
- bacterial background lawn ([2]; TA100, -S9, 0.158 mg/plate): a
- induction factor (IF) ([2]; TA100, -S9, 0.158 mg/plate): 0.91
- Average number of revertant colonies (mean ± SD) ([2]; TA100, -S9, 0.5 mg/plate): 0
- bacterial background lawn ([2]; TA100, -S9, 0.5 mg/plate): c
- Average number of revertant colonies (mean ± SD) ([2]; TA100, -S9, 1.58 mg/plate): 0
- bacterial background lawn ([2]; TA100, -S9, 1.58 mg/plate): d
- Average number of revertant colonies (mean ± SD) ([2]; TA100, -S9, 5 mg/plate): 0
- bacterial background lawn ([2]; TA100, -S9, 5 mg/plate): d
- cytotoxic concentration to bacterial strain [2]: ≥ 0.5 mg/plate

SMILES: O=[N+]([O-])c1cc(C(F)(F)F)ccc1Nc1ccc(OCC(O)CN2CCOCC2)cc1 (stereo not shown) [Compound 8]
- IC50 (KV10.1 [1]; [4]): 1010 nM
- mutagenic response [2]: no mutagenic response
- cytotoxic concentration to bacterial strain [2]: ≥ 0.5 mg/plate
- inhibition at 10 µM (KV10.1 [3]): 81.2 ± 4.97%

— PMC8002023, “3D Pharmacophore-Based Discovery of Novel KV10.1 Inhibitors with Antiproliferative Activity” (Cancers, 2021)
